# Tested on: M. riyadhense isolates
# Test: antimicrobial susceptibility testing of clinical isolates
# Format: cell-based, Mycobacterium riyadhense
# Conditions: eight clinical M. riyadhense isolates; share of isolates susceptible
row,Compound,susceptibility of isolates [%]
1,NCC[C@H](O)C(=O)N[C@@H]1C[C@H](N)[C@@H](O[C@H]2O[C@H](CN)[C@@H](O)[C@H](O)[C@H]2O)[C@H](O)[C@H]1O[C@H]1O[C@H](CO)[C@@H](O)[C@H](N)[C@H]1O [amikacin],100
2,CC[C@H]1OC(=O)[C@H](C)[C@@H](O[C@H]2C[C@@](C)(OC)[C@@H](O)[C@H](C)O2)[C@H](C)[C@@H](O[C@@H]2O[C@H](C)C[C@H](N(C)C)[C@H]2O)[C@](C)(OC)C[C@@H](C)C(=O)[C@H](C)[C@@H](O)[C@]1(C)O [clarithromycin],100
3,CC[C@@H](CO)NCCN[C@@H](CC)CO [ethambutol],100
4,CC(=O)NC[C@H]1CN(c2ccc(N3CCOCC3)c(F)c2)C(=O)O1 [linezolid],100
5,COc1c(N2C[C@@H]3CCCN[C@@H]3C2)c(F)cc2c(=O)c(C(=O)O)cn(C3CC3)c12 [moxifloxacin],100
6,CO[C@H]1/C=C/O[C@@]2(C)Oc3c(C)c(O)c4c(c3C2=O)C2=NC3(CCN(CC(C)C)CC3)NC2=C(NC(=O)/C(C)=C\C=C\[C@H](C)[C@H](O)[C@@H](C)[C@@H](O)[C@@H](C)[C@H](OC(C)=O)[C@@H]1C)C4=O [rifabutin],100
7,CO[C@H]1/C=C/O[C@@]2(C)Oc3c(C)c(O)c4c(O)c(c(/C=N/N5CCN(C)CC5)c(O)c4c3C2=O)NC(=O)/C(C)=C\C=C\[C@H](C)[C@H](O)[C@@H](C)[C@@H](O)[C@@H](C)[C@H](OC(C)=O)[C@@H]1C [rifampin],100
8,trimethoprim-sulfamethoxazole,100
